Patent EP4800018A1, “PAN-KRAS INHIBITOR AND USE THEREOF IN MEDICINES” (Betta Pharmaceuticals Co., Ltd., priority 2023, dated 2025)

Tests used:
[1] = test system: KRAS-G12D mutant tumor cells AGS; test: Cell Proliferation Inhibition Assay (AGS), Cell-titer GLO, 96 h; type: cell-based; settings: Homo sapiens, AGS, 96 h, AGS cells, 96 h incubation, Cell-titer GLO; read-out: AGS(G12D)
Protocol: KRAS-G12D mutant tumor cells AGS were seeded in low-attachment 96-well plates at a cell density of 1×10^3 cells/well and cultured overnight in a cell culture incubator. […] After incubation at 37°C for 96 h, 50 µL of Cell-titer GLO working solution was added to each well, mixed by shaking, incubated at room temperature for 10 min, and the Luminescence value was read on a multi-function microplate reader. The luminescence data were calculated and converted into inhibition percent. The inhibition percent of cell proliferation was calculated according to the following formula: Inhibition Percent = (MaxValue−MeasuredValue)/(MaxValue−Blank) × 100% [formula] […] Curve fitting was performed using GraphPad Prism software to obtain IC50 values, see Table 1.

[2] = test system: KRAS-G12V mutant tumor cells SW620; test: Cell Proliferation Inhibition Assay (SW620), Cell-titer GLO, 96 h; type: cell-based; settings: Homo sapiens, SW-620, 96 h, SW620 cells, 96 h incubation, Cell-titer GLO; read-out: SW620(G12V)
Protocol: KRAS-G12V mutant tumor cells SW620 were seeded in low-attachment 96-well plates at a cell density of 1×10^3 cells/well and cultured overnight in a cell culture incubator. After the cells adhered, the test compounds were added to the 96-well plates at final concentrations of 10000, 2000, 400, 80, 16, 3.2, 0.64, 0.13, 0.03, 0 nM (final concentration of DMSO was 0.5% for all). After incubation at 37°C for 96 h, 50 µL of Cell-titer GLO working solution was added to each well, mixed by shaking, incubated at room temperature for 10 min, and the Luminescence value was read on a multi-function microplate reader. The luminescence data were calculated and converted into inhibition percent. The inhibition percent of cell proliferation was calculated according to the following formula: Inhibition Percent = (MaxValue−MeasuredValue)/(MaxValue−Blank) × 100% [formula]
("Max Value" comes from the 0.5% DMSO control well, "Blank" comes from the blank control well, and "Measured Value" comes from the compound-treated well).
Curve fitting was performed using GraphPad Prism software to obtain IC50 values, see Table 1.

| Compound | IC50 [1] [nM] | IC50 [2] [nM] |
| --- | --- | --- |
| C[C@@H]1OCCCn2c(c3c4cc(ccc42)-c2csc(n2)C[C@H](NC(=O)[C@H]2C[C@@H]2C(F)F)C(=O)N2CCC[C@H](N2)C(=O)OCC(C)(C)C3)-c2cc(OCCN3CCOCC3)cnc21 [Example 157, (1S,2S)-2-(difluoromethyl)-N-((1^5S,6^3S,4S,Z)-1^5,10,10-trimethyl-1^2-(2-morpholinoethoxy)-5,7-dioxo-1^8,1^9,6^1,6^2,6^3,6^4,6^5,6^6-octahydro-1^5H,1^7H-8-oxa-1(13,15)-pyrido[3',2':7,8][1,5]oxazonino[5,6-a]indola-2(4,2)-thiazola-6(1,3)-pyridazinacycloundecaphane-4-yl)cyclopropane-1-carboxamide] | 3.31 | 0.58 |
| CC1OCCCn2c(c3c4cc(ccc42)-c2csc(n2)CC(NC(=O)C2C(C)C2C)C(=O)N2NC(C(=O)OCC(C)(C)C3)C3CC2C3)-c2cc(N3CCN(C)CC3)nnc21 [Example 195, (1r,2R,3S)-2,3-dimethyl-N-((1^5S,6^4S,4S,Z)-1^5,10,10-trimethyl-1^2-(4-methylpiperazin-1-yl)-5,7-dioxo-1^8,1^9-dihydro-1^5H,1^7H-8-oxa-6^2,6^3-diaza-1(13,15)-pyridazino[4',3':7,8][1,5]oxazonino[5,6-a]indola-2(4,2)-thiazola-6(2,4)-bicyclo[3.1.1]heptanacycloundecaphane-4-yl)cyclopropane-1-car boxamide] | 0.6 | 0.06 |
| CC1OCCCn2c(c3c4cc(ccc42)-c2csc(n2)CC(NC(=O)C2COC2)C(=O)N2NC(C(=O)OCC(C)(C)C3)C3CC2C3)-c2cc(N3CCN(C)CC3)cnc21 [Example 199, N-((1^5S,6^4S,4S,Z)-1^5,10,10-trimethyl-1^2-(4-methylpiperazin-1-yl)-5,7-dioxo-1^8,1^9-dihydro-1^5H, 1 ^7H-8-oxa-6^2,6^3-diaza-1(13,15)-pyrido[3',2':7,8][1,5]oxazonino[5,6-a]indola-2(4,2)-thiazola-6(2,4)-bicyclo[3.1.1]heptanacycloundecaphane-4-yl)oxetane-3-carboxamide] | 39 | 4.1 |
| C[C@@H]1[C@H](C)[C@H]1C(=O)N[C@H]1Cc2nc(cs2)-c2ccc3c(c2)c(c2n3CCCO[C@@H](C)c3ncc(N4C[C@@H](C)O[C@@H](C)C4)cc3-2)CC(C)(C)COC(=O)[C@@H]2CCCN(N2)C1=O [Example 166, (1r,2R,3S)-N-((1^5S,6^3S,4S,Z)-1^2-((2S,6R)-2,6-dimethylmorpholino)-1^5,10,10-trimethyl-5,7-dioxo-1^8,1^9,6^1,6^2,6^3,6^4,6^5,6^6-octahydro-1^5H,1^7H-8-oxa-1(13,15)-pyrido[3',2':7,8][1,5]oxazonino[5,6-a]indola-2(4,2)-thiazola-6(1,3)-pyridazinacycloundecaphane-4-yl)-2,3-dimethylcyclopropane-1-ca rboxamide] | 0.36 | 0.14 |
| CC(C)[C@@H](C(=O)N[C@H]1Cc2nc(cs2)-c2ccc3c(c2)c(c2n3CCCO[C@@H](C)c3ncc(N4CCN(C)CC4)cc3-2)CC(C)(C)COC(=O)[C@H]2NN(C1=O)C1CC2C1)N(C)C(=O)N(C)C [Example 204, (2S)-3-methyl-N-((1^5S,6^4S,4S,Z)-1^5,10,10-trimethyl-1^2-(4-methylpiperazin-1-yl)-5,7-dioxo-1^8,1^9-dihydro-1^5H,1^7H-8-oxa-6^2,6^3-diaza-1(13,15)-pyrido[3',2':7,8][1,5]oxazonino[5,6-a]indola-2(4,2) -thiazola-6(2,4)-bicyclo[3.1.1]heptanacycloundecaphane-4-yl)-2-(1,3,3-trimethylureido)butanamide] | 0.4 | 0.2 |
| C[C@@H]1OCCCn2c(c3c4cc(ccc42)-c2csc(n2)C[C@H](NC(=O)[C@H]2C[C@@H]2C(F)F)C(=O)N2CCC[C@H](N2)C(=O)OCC(C)(C)C3)-c2cc(N(C)C3CCN(C)C3)cnc21 (stereo partly drawn) [Example 160, (1S,2S)-2-(difluoromethyl)-N-((1^5S,6^3S,4S,Z)-1^5,10,10-trimethyl-1^2-(methyl(1-methylpyrrolidin-3-yl)amino)-5,7-dioxo-1^8,1^9,6^1,6^2,6^3,6^4,6^5,6^6-octahydro-1^5H,1^7H-8-oxa-1(13,15)-pyrido[3',2':7,8][1,5]oxazonino[5,6-a]indola-2(4,2)-thiazola-6(1,3)-pyridazinacycloundecaphane-4-yl)cycloprop ane-1-carboxamide] | 2.25 | 0.98 |
| C[C@@H]1OCCCn2c(c3c4cc(ccc42)-c2csc(n2)C[C@H](NC(=O)[C@H]2C[C@@H]2C(F)F)C(=O)N2CCC[C@H](N2)C(=O)OCC(C)(C)C3)-c2cc(OC[C@@H]3CCCCN3C)cnc21 [Example 156, (1S,2S)-2-(difluoromethyl)-N-((1^5S,6^3S,4S,Z)-1^5,10,10-trimethyl-1^2-(((S)-1-methylpiperidin-2-yl)methoxy)-5,7-dioxo-1^8,1^9,6^1,6^26^36^4,6^5,6^6-octahydro-1^5H,1^7H-8-oxa-1(13,15)-pyrido[3',2':7,8][1,5]oxazonino[5,6-a]indola-2(4,2)-thiazola-6(1,3)-pyridazinacycloundecaphane-4-yl)cyclopropane-1-carboxamide] | 8.27 |  |

Now from value to compound:

| IC50 [1] [nM] | IC50 [2] [nM] | Compound |
| --- | --- | --- |
| 1.33 | 0.28 | C[C@@H]1OCCCn2c(c3c4cc(ccc42)-c2csc(n2)C[C@H](NC(=O)[C@H]2C[C@@H]2C(F)F)C(=O)N2CCC[C@H](N2)C(=O)OCC(C)(C)C3)-c2cc(N3CCOC(C)(C)C3)cnc21 [Example 153, (1S,2S)-2-(difluoromethyl)-N-((1^5S,6^3S,4S,Z)-1^2-(2,2-dimethylmorpholino)-1^5,10,10-trimethyl-5 ,7-dioxo-1^8,1^9,6^1,6^2,6^3,6^4,6^5,6^6-octahydro-1^5H,^17H-8-oxa-1(13,15)-pyrido[3',2':7,8][1,5]oxazonino[5,6-a]indola-2(4,2)-thiazola-6(1,3)-pyridazinacycloundecaphane-4-yl)cyclopropane-1-carboxamide] |
| 2.1 | 3.3 | CCN1CCN(c2cnc3c(c2)-c2c4c5cc(ccc5n2C[C@@H](OC)CO[C@H]3C)-c2csc(n2)C[C@H](NC(=O)[C@H]2C[C@@H]2C)C(=O)N2CCC[C@H](N2)C(=O)OCC(C)(C)C4)CC1 [Example 203, (1S,2S)-N-((1^5S,1^8R,6^3S,4S,Z)-1^2-(4-ethylpiperazin-1-yl)-1^8-methoxy-1^5,10,10-trimethyl-5,7-dioxo-1^8,1^9,6^1,6^26^3,6^4,6^5,6^6-octahydro-1^5H,1^7H-8-oxa-1(13,15)-pyrido[3',2':7,8][1,5]oxazonino[5,6-a]indola-2(4,2)-thiazola-6(1,3)-pyridazinacycloundecaphane-4-yl)-2-methylcyclopropane-1-carb oxamide] |
| 1.08 |  | CCN1CCN(c2cnc3c(c2)-c2c4c5cc(ccc5n2CCCOC3C)-c2csc(n2)CC(NC(=O)C2C3COCC32)C(=O)N2CCCC(N2)C(=O)OCC(C)(C)C4)CC1 [Example 162, (3R,4r,5S)-N-((1^5S,6^3S,4S,Z)-1^2-(4-ethylpiperazin-1-yl)-1^5,10,10-trimethyl-5,7-dioxo-1^8,1^9,6^1,6^2 ,6^3,6^4,6^5,6^6-octahydro-1^5H,1^7H-8-oxa-1(13,15)-pyrido[3',2':7,8][1,5]oxazonino[5,6-a]indola-2(4, 2)-thiazola-6(1,3)-pyridazinacycloundecaphane-4-yl)tetrahydro-2H-pyran-4-carboxamide] |
